In data set [1] the test system is H4. In words: Toxicity in human H4 cells at 10 uM. The conditions noted are these: h4, 10 µM. It counts as cell-based.
Data set [2] concerns the target T1, Gamma-secretase (Homo sapiens) (UniProt Q96BI3+Q9NZ42+Q8WW43+P49768+Q92542+P49810). In words: Inhibition of gamma secretase in HEK293 cells assessed as amyloid beta secretion. It is filed as cell-based.
Data set [3] addresses Casein kinase I isoform delta (Homo sapiens) (UniProt P48730). Briefly: Inhibition of casein kinase delta at 10 uM; values are per cent of control.
Data set [4] in a line: Inhibition of CAMK2.
Data set [5] concerns the target T1, Gamma-secretase (Homo sapiens). Briefly: Inhibition of gamma secretase in HEK293 cells assessed as amyloid beta secretion at 150 uM. It counts as cell-based.
Data set [6] has the same target. Briefly: Inhibition of gamma secretase in HEK293 cells assessed as amyloid beta secretion at 250 uM. It is filed as cell-based.
The test system of data set [7] is N2a. In words: Inhibition of gamma secretase mediated amyloid beta 42 secretion in mouse N2a cells overexpressing CK1epsilon-271 within 5- to 50 uM after 3hr. It is filed as cell-based.
Data set [8] addresses T2, Aurora kinase A (Homo sapiens) (UniProt O14965).
T2 sequence (whole entry): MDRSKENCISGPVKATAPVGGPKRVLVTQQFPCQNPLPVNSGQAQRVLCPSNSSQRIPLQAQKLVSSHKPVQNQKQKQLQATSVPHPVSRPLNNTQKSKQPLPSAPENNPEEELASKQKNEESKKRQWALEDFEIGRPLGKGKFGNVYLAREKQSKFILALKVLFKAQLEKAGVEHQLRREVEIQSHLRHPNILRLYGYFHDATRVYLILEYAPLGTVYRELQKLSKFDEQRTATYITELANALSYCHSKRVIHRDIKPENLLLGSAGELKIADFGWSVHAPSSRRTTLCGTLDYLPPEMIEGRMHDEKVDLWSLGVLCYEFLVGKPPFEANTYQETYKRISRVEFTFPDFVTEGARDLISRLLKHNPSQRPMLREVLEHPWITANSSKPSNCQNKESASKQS
In words: Inhibition of Aurora A.

Data set [9] deals with T1, Gamma-secretase (Homo sapiens). In words: Inhibition of gamma secretase in HEK293 cells assessed as amyloid beta 42 secretion at 50 uM. It is filed as cell-based.
Data set [10] has as its target T3, Serine/threonine-protein kinase Chk1 (Homo sapiens) (UniProt O14757).
T3 sequence (whole entry): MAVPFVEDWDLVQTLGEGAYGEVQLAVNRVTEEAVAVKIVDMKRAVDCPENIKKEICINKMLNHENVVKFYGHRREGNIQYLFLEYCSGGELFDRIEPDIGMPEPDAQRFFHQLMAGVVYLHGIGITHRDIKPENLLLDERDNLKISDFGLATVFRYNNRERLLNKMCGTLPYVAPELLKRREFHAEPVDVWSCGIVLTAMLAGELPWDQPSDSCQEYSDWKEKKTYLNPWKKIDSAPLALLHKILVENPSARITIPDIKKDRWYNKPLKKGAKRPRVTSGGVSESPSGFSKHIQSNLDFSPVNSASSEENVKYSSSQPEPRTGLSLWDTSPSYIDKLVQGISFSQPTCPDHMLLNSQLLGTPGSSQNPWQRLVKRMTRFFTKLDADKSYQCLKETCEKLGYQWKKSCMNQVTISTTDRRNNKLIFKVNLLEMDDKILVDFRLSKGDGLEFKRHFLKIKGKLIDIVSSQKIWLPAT
In words: Inhibition of CHK1.

In data set [11] the test system is N2a. In words: Inhibition of gamma secretase mediated amyloid beta 40 secretion in mouse N2a cells overexpressing CK1epsilon-271 within 5- to 50 uM after 3hr. It counts as cell-based.
Data set [12] has as its target T1, Gamma-secretase (Homo sapiens). In words: Inhibition of gamma secretase in HEK293 cells assessed as amyloid beta 38 secretion at 50 uM. It is filed as cell-based.
The target is the same in data set [13]. Briefly: Inhibition of gamma secretase in HEK293 cells assessed as amyloid beta 40 secretion at 50 uM. It counts as cell-based.
In data set [14] the target is Casein kinase I isoform delta (Homo sapiens) (UniProt P48730). In words: Inhibition of CK1delta.
Sequence of Casein kinase I isoform delta (Homo sapiens) (P48730 whole entry, looked up, canonical isoform): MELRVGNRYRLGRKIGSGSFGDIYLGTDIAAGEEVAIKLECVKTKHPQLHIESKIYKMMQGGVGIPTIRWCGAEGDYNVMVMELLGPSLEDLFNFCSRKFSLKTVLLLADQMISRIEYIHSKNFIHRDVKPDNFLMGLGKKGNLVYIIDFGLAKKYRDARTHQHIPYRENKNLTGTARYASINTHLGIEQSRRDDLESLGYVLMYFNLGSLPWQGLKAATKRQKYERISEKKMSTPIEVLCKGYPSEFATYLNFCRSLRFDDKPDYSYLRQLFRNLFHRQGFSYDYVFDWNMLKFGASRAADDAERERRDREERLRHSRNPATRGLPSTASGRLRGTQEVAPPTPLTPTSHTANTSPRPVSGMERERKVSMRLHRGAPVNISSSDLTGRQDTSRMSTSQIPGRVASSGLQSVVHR
In data set [15] the target is T1, Gamma-secretase (Homo sapiens). Briefly: Inhibition of gamma secretase mediated amyloid beta 38 generation in human H4 cells at 5 uM by LPECL assay; values are per cent of control.
The target is the same in data set [16]. Briefly: Inhibition of gamma secretase mediated amyloid beta 40 generation in human H4 cells at 5 uM by LPECL assay; values are per cent of control.
The target is the same in data set [17]. Briefly: Inhibition of gamma secretase mediated amyloid beta 42 generation in human H4 cells at 5 uM by LPECL assay; values are per cent of control.

Calls of active or inactive are those of the source. The rule behind the calls is not given here.

Consider `CCN(CC)CCNC(=O)c1c(C)[nH]c(/C=C2\C(=O)Nc3ccc(F)cc32)c1C` [SUNITINIB], for which, in data set [1], the Activity was 40 µM. The result in data set [2] was inactive.
In data set [1], `COc1cc(/C=C2/C(=O)Nc3ccc(Cl)cc32)cc(OC)c1OC` came in with an Activity of 80 µM.
Take `COc1cc(OC)c(C=C2C(=O)Nc3ccccc32)c(OC)c1`: the residual activity in [3] is 19%. The inhibition entry in [4], in data set [5], in data set [8], in data set [9], in data set [10] and in [12] was “inactive” each time. The inhibition entry in [13] is “inactive”. Also, the inhibition entry in data set [6] is “Active”. Besides, the figures for the inhibition in data set [7] and in [11] were 61% and 68%, respectively.
For the compound `COc1ccc(/C=C2/C(=O)Nc3ccc(Cl)cc32)c(OC)c1OC`, in [3], the residual activity came out at 99%. The inhibition entry in data set [4], in [14], in [8] and in [10] was “inactive” in each case. Moreover, the Activity in data set [1] came out at 20 µM.
For the compound `O=C1Nc2ccc(Cl)cc2/C1=C\c1cc(F)cc(F)c1`, the residual activity in [15] amounted to 81%; in data set [16], 106%; in data set [17], 112%.
Regarding `COc1cc(OC)c(/C=C2/C(=O)Nc3ccc(Cl)cc32)c(OC)c1`, in data set [3], the residual activity amounted to 87%. For the same compound, the inhibition in data set [4] (concentration not given here), in data set [14] (concentration not given here), in data set [8] (concentration not given here) and in [10] (concentration not given here) was below 20% each time. Besides, in data set [1], the Activity stood at 20 µM.

A word on the residual activity: it is the signal under treatment as a percentage of the control signal. What is called inhibition is the relative decrease from the control value, in per cent.

These data come from ChEMBL document CHEMBL1157898 (Bioorg Med Chem Lett, 2010).
